Assay results from US20100063027A1, “Amine Derivative Having NPY Y5 Receptor Antagonistic Activity” (SHIONOGI & CO., LTD., priority 2006, published 2010).

Legend:
[1] = biological target: T1, human NPY Y5 receptor (Homo sapiens, UniProt Q15761); test: Affinity for NPY Y5 receptor ([125I] peptide YY binding, CHO cell membranes); conditions: [125I] peptide YY 60 pM, 25° C., 2 hours
T1 construct: expressed in transfected cells; membranes used
T1 sequence (Q15761 1-445): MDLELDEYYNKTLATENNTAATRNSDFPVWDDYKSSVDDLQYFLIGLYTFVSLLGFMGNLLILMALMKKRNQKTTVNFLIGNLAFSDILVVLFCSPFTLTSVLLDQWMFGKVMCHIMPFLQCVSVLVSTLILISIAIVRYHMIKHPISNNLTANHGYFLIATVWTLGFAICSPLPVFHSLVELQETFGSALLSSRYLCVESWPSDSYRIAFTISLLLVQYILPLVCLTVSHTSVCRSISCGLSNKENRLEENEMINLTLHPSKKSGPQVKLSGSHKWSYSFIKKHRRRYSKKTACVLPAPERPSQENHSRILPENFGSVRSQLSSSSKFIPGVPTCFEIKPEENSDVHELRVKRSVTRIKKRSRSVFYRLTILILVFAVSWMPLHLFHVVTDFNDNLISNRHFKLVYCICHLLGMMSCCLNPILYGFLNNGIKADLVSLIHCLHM
Source text: cDNA sequence encoding a human NPY Y5 receptor (WO96/16542) was cloned in a vector (pME18S, Takebe et al. Mol. Cell. Biol. 8, 8957). The obtained expression vector was transfected into CHO cells as a host by using Lipofect AMINE reagent (Trademark, Gico BRL Co., Ltd.) according to the instruction manual. The cells that stably express NPY Y5 receptor were obtained.
The membranes prepared from the CHO cells expressing NPY Y5 receptor, the compound of the present invention and 30,000 cpm [^125I] peptide YY (60 pM of final concentration: Amersham) were incubated in the assay buffer (20 mM HEPES-Hanks buffer containing 0.1% bovine serum albumin, pH 7.4) at 25° C. for 2 hours, and then the membrane was filtered from the mixture through a glassfilter (GF/C) presoaked with 1% polyethyleneimine. After washing with 50 mM Tris-HCl buffer (pH 7.4), radioactivity retained on the filters was quantified with a gamma counter. Nonspecific binding was defined as the amount of radioactivity bound to the membranes after incubation in the presence of 200 nM of peptide YY. The 50% inhibitory concentration of the test compound against the specific peptide YY binding (IC50 value) was calculated (Inui, A. et al. Endocrinology 131, 2090-2096 (1992)).

[2] = Transportability through the blood-brain barrier (brain Kp) in mice; type: in vivo; conditions: male, Jcl;C57BL/6J, mouse, brain (relative to plasma), intravenous administration, without cyclosporin A, read-out: brain Kp value (KpCont.), blood-brain partition coefficient
Description: (§1) Transportability of the compounds of the present invention through the blood-brain barrier (blood-brain partition coefficient; Kp) in mice (Jcl;C57BL/6J mice, ♂, 7 weeks) was defined from the difference in concentration of the compounds between in plasma and in brain after intravenous administration of the compounds (0.5 mg/2 mIAg). The brain Kp value of Compound (1-72) (KpCont.) was 1.29 showing high transportability through the blood-brain barrier.

[3] = biological target: T2, P-gp (Mus musculus, UniProt P21447); test: Potential for drug-drug interactions through P-gp in vivo (Kp with or without cyclosporin A); conditions: mice, with versus without cyclosporin A (20 mg/kg)
T2 construct: effectively excreted through P-gp from the brain to vessels; from tissue; host or cells: brain / blood-brain barrier of living Jcl;C57BL/6J mice
T2 sequence (P21447 whole entry): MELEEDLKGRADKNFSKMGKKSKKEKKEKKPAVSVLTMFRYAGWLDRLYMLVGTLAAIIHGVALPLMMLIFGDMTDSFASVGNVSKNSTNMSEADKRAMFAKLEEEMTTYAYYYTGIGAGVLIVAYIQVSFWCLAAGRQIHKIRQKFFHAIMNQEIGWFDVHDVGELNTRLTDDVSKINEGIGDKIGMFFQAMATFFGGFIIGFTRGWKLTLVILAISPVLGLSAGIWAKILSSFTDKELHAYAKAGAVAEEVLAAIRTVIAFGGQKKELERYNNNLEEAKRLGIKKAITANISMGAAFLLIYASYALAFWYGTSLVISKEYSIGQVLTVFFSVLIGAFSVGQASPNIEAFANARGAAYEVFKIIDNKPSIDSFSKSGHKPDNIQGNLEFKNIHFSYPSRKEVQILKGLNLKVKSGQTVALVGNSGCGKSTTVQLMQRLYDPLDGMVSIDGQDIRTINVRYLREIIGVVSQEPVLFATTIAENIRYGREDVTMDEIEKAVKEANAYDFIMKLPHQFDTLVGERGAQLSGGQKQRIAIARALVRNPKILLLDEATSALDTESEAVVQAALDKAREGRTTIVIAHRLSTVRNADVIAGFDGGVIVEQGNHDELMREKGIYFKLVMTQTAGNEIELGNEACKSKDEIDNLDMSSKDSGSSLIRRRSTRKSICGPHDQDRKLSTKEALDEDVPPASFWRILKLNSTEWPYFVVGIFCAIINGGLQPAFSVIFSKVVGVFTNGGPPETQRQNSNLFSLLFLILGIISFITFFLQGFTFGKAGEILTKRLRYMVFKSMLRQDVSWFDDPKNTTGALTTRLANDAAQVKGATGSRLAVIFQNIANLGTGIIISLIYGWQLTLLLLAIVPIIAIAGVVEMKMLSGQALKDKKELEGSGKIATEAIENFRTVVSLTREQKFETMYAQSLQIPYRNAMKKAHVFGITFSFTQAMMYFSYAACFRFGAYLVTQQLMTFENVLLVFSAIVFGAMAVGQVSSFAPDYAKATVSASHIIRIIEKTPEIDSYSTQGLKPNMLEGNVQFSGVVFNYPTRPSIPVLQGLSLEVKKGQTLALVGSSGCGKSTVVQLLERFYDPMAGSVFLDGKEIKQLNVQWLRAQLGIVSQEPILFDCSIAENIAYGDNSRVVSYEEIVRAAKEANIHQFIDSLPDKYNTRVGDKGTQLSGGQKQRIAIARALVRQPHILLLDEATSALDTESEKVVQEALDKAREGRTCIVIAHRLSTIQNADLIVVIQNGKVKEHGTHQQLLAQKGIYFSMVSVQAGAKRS
Description: as §1
(§2) To examine the potential for drug-drug interactions through P-gp in vivo, the Kp values of compounds of the present invention with (KpCSA) or without (KpCont.) cyclosporin A (20 mg/kg), a P-gp inhibitor, were calculated. The KpCSA value of Compound (I-72) was 1.14, and the calculated KpCSA/KpCont. ratio was 0.9.
(§3) On the other hand the potential for drug-drug interactions through P-pg of amide compound B which has similar structure of Compound (I-72) was also examined in mice. The KpCont. and KpCSA were 0.04 and 0.84, respectively.

[4] = system: T3, P-gp; test: as above; conditions: male, Jcl;C57BL/6J, mouse, brain (relative to plasma); mice, intravenous administration, with cyclosporin A (20 mg/kg), a P-gp inhibitor; read-out: KpCSA value
T3 construct: effectively excreted through P-gp from the brain to vessels; from tissue; host or cells: brain / blood-brain barrier of living Jcl;C57BL/6J mice
Description: as §1, §2, §3

Row | IC50 [1] [nM] | SMILES | other results
1 | 0.7 | CC(C)S(=O)(=O)NC[C@H]1CC[C@H](Nc2ccc(C(F)(F)F)cn2)CC1 [Ij-1] | –
2 | 0.39 | CC(C)(C)S(=O)(=O)NC[C@H]1CC[C@H](Nc2nc3ccc(C(F)(F)F)cc3s2)CC1 [Ij-66] | –
3 | 0.27 | CC(C)S(=O)(=O)NC[C@H]1CC[C@H](Nc2ccc(OC3CCCC3)nn2)CC1 [Ij-52] | –
4 | 2.5 | CC(C)(C)S(=O)(=O)NC[C@H]1CC[C@H](Nc2ccc3ccccc3n2)CC1 [Ij-59] | –

More lines, now with the values behind:

Row | SMILES | IC50 [1] [nM] | other results
5 | CCCn1c(=O)oc2cc(NC[C@H]3CC[C@H](NS(=O)(=O)CC)CC3)ccc21 [Ii-16] | 2.5 | –
6 | CCS(=O)(=O)N[C@H]1CC[C@H](CNc2ccc(S(=O)(=O)c3ccc(F)cc3)cc2)CC1 [Ii-34] | 11 | –
7 | CCS(=O)(=O)N[C@H]1CC[C@H](CNc2cc(-c3ccccc3)on2)CC1 [Ii-44] | 3.4 | –
8 | CC1CC(C)CN(c2cccc(NC[C@H]3CC[C@H](NS(=O)(=O)C(C)(C)C)CC3)c2)C1 (stereo partly drawn) [Ii-1] | 0.1 | –
9 | C[C@@H]1CN(c2ccc(NC(=O)[C@H]3CC[C@H](NS(=O)(=O)C(C)(C)C)CC3)cc2)C[C@H](C)O1 [compound B, reference compound] | – | Kp [2]: 0.04; KpCSA/KpCont. ratio [3]: 20.5; Kp [4]: 0.84
10 | C[C@@H]1CN(c2ccc(NC[C@H]3CC[C@H](NS(=O)(=O)C(C)(C)C)CC3)cc2)C[C@H](C)O1 [Compound I-72] | – | Kp [2]: 1.29; KpCSA/KpCont. ratio [3]: 0.9; Kp [4]: 1.14; melting point: 147 to 149 °C
